Assays:
[1] = system: ischemic preconditioning (IPC) cardioprotection; details: cited from earlier work; for Inhibition of the triggering step of IPC (in words): ref [21],[40],[41],[42],[43]; for Effect on cardioprotection by preconditioning (in words): ref [21]
Description: IPC is a powerful and robust cardioprotective mechanism. In the current study, we wanted to examine if IPC in combination with Gap peptides would interfere with infarct size limitation. […] Peptides were added prior to and during three cycles of ischemic preconditioning pretreatment before prolonged global ischemia but not at the following reperfusion. When combining Gap26 and ischemic preconditioning, the protection agains ... || Through the years, multiple attempts have been made to use cardioprotection by IPC or pharmacological interventions that mimic IPC to reduce infarct size in the clinic. So far, this has been without success when carried through to large phase 3 clinical studies. Adaption to stress is a beneficial endogenous mechanism closely related to injury mechanisms.

[2] = system: isolated perfused male rat hearts; experiment: Left ventricular function (LVDP, EDP) after ischemia-reperfusion, Langendorff-perfused heart; design: species or system male Wistar rat; details: % recovery of initial preischemic LVDP after 30 min ischemia and 120 min reperfusion; peptide during IPC
Description: (§1) All experiments were approved by the Norwegian animal research authority and were performed according to the Norwegian Animal Welfare Act and the European Convention for the Protection of Vertebrate Animals Used for Experimental and other Scientific Purposes (ETS No. 123 and 2010/63/EU). Male Wistar rats 250–350 g (Charles River, UK) were anesthetized with pentobarbital (100 mg/kg i.p.) and heparinized (300 IU i.p.), the chest opened and the heart removed.
(§2) The heart was immediately submerged in an ice-cold buffer and quickly mounted on the perfusion apparatus, where it was perfused with the Krebs–Henseleit buffer (gassed with 5% CO2 and 95%O2) in a constant pressure Langendorff setup (100 cm H2O). The temperature was kept at 37 °C during the whole experiment by keeping the heart submerged in a heated buffer. Left ventricular pressure was recorded using a balloon catheter connected to a pressure transducer. Coronary flow was measured by timed collections of perfusate.
(§3) Hearts were stabilized for 15 min, then either subjected to 30 min of global ischemia and 2 h of reperfusion or preconditioning with 3 cycles of 5 min of ischemia and reperfusion (IPC) before 30 min of global ischemia and 2 h of reperfusion. Care was taken to secure controls corresponding in time and rat batch with the intervention experiments. […]

[3] = system: isolated perfused male rat hearts (connexin43 hemichannels); experiment: Infarct size (TTC staining) after global ischemia-reperfusion, Langendorff-perfused heart; design: species or system male Wistar rat
Description: as §1, §2
Hearts were stabilized for 15 min, then either subjected to 30 min of global ischemia and 2 h of reperfusion or preconditioning with 3 cycles of 5 min of ischemia and reperfusion (IPC) before 30 min of global ischemia and 2 h of reperfusion. Care was taken to secure controls corresponding in time and rat batch with the intervention experiments.
Connexin mimetic peptides Gap19 (amino acid sequence KQIEKKFK), Gap26 (VCYDKSFPISHVR) and Gap27 (SRPTEKTIFII) from Pepnome Inc., Hong Kong, China, were dissolved in the Krebs–Henseleit buffer to a final concentration of 0.5 µM [7, 12] and used in experiments the same day. Amino-acid sequences were confirmed by mass spectrometry analysis. The hearts that were subject to ischemia without IPC received the peptides prior to and after 30 min global ischemia. The hearts that were subject to IPC received the peptides during the preconditioning cycles only prior to 30 min ischemia.
At the end of reperfusion, the heart was immediately cut off caudal to the atria yielding only ventricular tissue. The ventricular tissue was then weighed in its wet state and immediately frozen to −18 °C for 24 h, sliced into four or five 2 mm thick slices and dyed with 1% 2, 3, 5 triphenyl tetrazolium chloride (TTC) (Sigma-Aldrich Co., Ltd., St. Louis, MI, USA) in Dulbecco’s phosphate buffered saline (PBS) (Sigma-Aldrich Co.). Each heart was submerged in 50mL of 1% TTC in PBS for 20 min at 37 °C in a light-free environment. Thereafter the slices were quickly dried and fixed in 4% formaldehyde for 30 min before they were scanned by a high-resolution scanner; the images were then blind-coded. Infarcts were manually traced, and the area of infarct relative to the whole area was quantified using Image J software. […]

[4] = system: isolated perfused male rat hearts; experiment: Coronary flow in isolated perfused heart; design: species or system male Wistar rat; details: before 30 min ischemia; Gap peptide in buffer
Description: as §1, §2, §3

[5] = system: subsarcolemmal mitochondria isolated from perfused rat hearts; experiment: High-resolution respirometry of isolated subsarcolemmal mitochondria; format: biochemical, male Wistar rat; details: pH 7.4, 37 °C; for Oxygen flux, +Oligomycin: oligomycin 4 µg/mL; for Oxygen flux, +Oligomycin / Oxygen flux, +ADP 50 µM / Oxygen flux, Glutamate + Maleate / Oxygen flux, OXPHOS Saturating +ADP 2.5 mM / Oxygen flux, State 4 (LEAK ATP): mean ± SEM, n = 3; for Oxygen flux, +ADP 50 µM / Oxygen flux, Glutamate + Maleate / Oxygen flux, OXPHOS Saturating +ADP 2.5 mM / Oxygen flux, State 4 (LEAK ATP): 10 min preincubation on ice
Description: as §1
Hearts were control perfused or subjected to IPC. Isolation of mitochondria was performed using the procedure described by Palmer et al. (1977) with minor modifications. All procedures were performed on ice or at 4 °C. Briefly, the ventricles were removed, weighed and placed in the buffer containing (in mM): 100 KCl, 50 MOPS, 1 EGTA, 5 MgSO4, 1 ATP and pH 7.4. Heart tissue was minced with scissors in a small volume of buffer. Buffer plus bovine serum albumin BSA (2 mg/mL) were added, and the tissue suspension was homogenized with Polytron for 7 s and thereafter with two strokes of a Potter-Elvehjem homogenizer (Glas-Col, Terre Haute, IN, USA) and centrifuged at 590× g for 10 min at 4 °C. The supernatant was filtered through a nylon net (NITEX 300 lm; Yulee, FL, USA). Supernatants now containing mitochondria mainly from the subsarcolemmal compartment (SSM fraction) were centrifuged at 3000× g for 10 min at 4 °C, and the SSM pellet was again resuspended in the buffer plus BSA and centrifuged at 3000× g for 10 min. The pellet was resuspended in the buffer containing (in mM): 100 KCl, 50 MOPS 50, 0.5 EGTA and pH 7.4 and centrifuged at 3000× g for 10 min at 4 °C. The final pellet was resuspended in this buffer and left on ice for 30 min for stabilization of membranes.
Measurement of mitochondrial oxygen consumption was performed in an oxygraph (Oxygraph 2k; Oroboros Instruments, Innsbruck, Austria) using a respiration medium [100 KCl; 50 MOPS; 1 EGTA; 5 KH2PO4 (all in mM); BSA 1 mg mL) and pH = 7.4] in a closed 2 mL chamber at 37 °C. Glutamate (5.0 mM) and malate (2.5 mM) were used as substrates. After obtaining stable respiration O2 flux (nmol O2/min/mL), ADP was added to a final concentration of 50 µM to measure coupled respiration. After depletion of ADP and stable respiration, a saturating ADP amount (2.5 mM) was added to obtain max coupled respiration (OxPhos). Finally, oligomycin was added to a final concentration of 4 µg/mL to inhibit the ATP-synthase, and a stable state oligomycin measurement was recorded. At the end of the experiments, protein content was estimated by the Bradford method, and citrate synthase activity was measured. Results of O2 flux measurements (nmol O2/min) were normalized to citrate synthase activity (IU µmol/min) in the sample. Phosphate/oxygen ratio (P/O ratio) was calculated as ADP phosphorylated divided by oxygen molecules consumed. The respiratory control ratio (RCR) was calculated as the ratio between max state 3 (OxPhos) and […].
In order to assess the effect of Gap26 and Gap27 on mitochondrial respiration, peptides in concentrations 0.5, 5.0 and 50.0 µM were added to the isolated mitochondria. After 10 min preincubation on ice 60 µL of the suspension was added to the oxygraphy, and peptide concentration was adjusted to the new volume, so the final peptide concentration was the same during the whole experiment. Each subgroup consisted of samples from 3–4 hearts, and care was taken to minimize variability by testing the different Gap peptides and concentrations concomitantly in every heart at the same time using multiple respiratory chambers.
Statistical analysis was performed by SigmaPlot version 14.5 (Systate Software Inc. Chicago, IL, USA) using one-way or two-way ANOVA followed by the Holms Sidac method as a post hoc test when appropriate. Results are presented as mean ± SEM except for binding kinetics, which is presented as mean ± SD (n = 3–4).

[6] = control hearts (crt), peptide 0.5 µM
[7] = control hearts (crt), peptide 5 µM
[8] = control hearts (crt), peptide 50 µM

Compound: CC(=O)Oc1ccccc1C(=O)O [acetylsalicylic acid (aspirin), acetylsalicylic acid]
- Inhibition of the triggering step of IPC (in words) [1]: inhibit the triggering step of IPC

Compound: COc1ccc2[nH]cc(CCNC(C)=O)c2c1 [melatonin]
- Inhibition of the triggering step of IPC (in words) [1]: inhibit the triggering step of IPC

Compound: CCCN(CCC)S(=O)(=O)c1ccc(C(=O)O)cc1 [probenecid]
- Effect on cardioprotection by preconditioning (in words) [1]: could inhibit this effect

Compound: KQIEKKFK [Gap19]
- Recovery of LVDP, Gap peptide combined with IPC (in words) [2]: significant increase in % recovery of LVDP (p < 0.05)
- Cardioprotection / infarct size reduction when combined with IPC (in words) ([3]; Gap peptide prior to and during three IPC cycles, not at reperfusion): protection was maintained
- Infarct size in % of untreated control infarcts, Gap peptide combined with IPC ([3]; IPC 3 cycles of 5 min ischemia/reperfusion, Gap peptide 0.5 µM (Figure 1 legend: 0.05 µM) only during preconditioning cycles before 30 min global ischemia, 2 h reperfusion, TTC, mean ± SEM): 60.9 ± 5.1%
- Infarct size reduction (in words) ([3]; no IPC, Gap peptide immediately prior to ischemia and first 10 min of reperfusion): reducing infarct size to the same degree as ischemic preconditioning
- Infarct size in % of untreated control infarcts ([3]; no IPC, isolated rat heart, 37 °C, Gap peptide 0.5 µM (Figure 1 legend: 0.05 µM) prior to and after 30 min global ischemia, 2 h reperfusion, TTC, mean ± SEM): 76.2 ± 2.7%
- Coronary flow at baseline (in words) [4]: significantly reduced with Gap19 compared to control (p < 0.05)
- Mitochondrial respiration / average oxygen flux, RCR or P/O ratio (in words) ([5]; Gap peptides 0.5, 5, 50 µM added in vitro to isolated mitochondria from control or IPC hearts, glutamate + malate): not able to detect significant change
- Oxygen flux, +Oligomycin ([5]; IPC hearts, peptide 0.5 µM): 37.8 ± 7.4 nmol O2 (µmol IU CS Activity)^−1
- Oxygen flux, +ADP 50 µM ([5]; IPC hearts, peptide 0.5 µM): 69.8 ± 28.0 nmol O2 (µmol IU CS Activity)^−1
- Oxygen flux, Glutamate + Maleate ([5]; IPC hearts, peptide 0.5 µM): 15.2 ± 4.2 nmol O2 (µmol IU CS Activity)^−1
- Oxygen flux, OXPHOS Saturating +ADP 2.5 mM ([5]; IPC hearts, peptide 0.5 µM): 92.5 ± 25.1 nmol O2 (µmol IU CS Activity)^−1
- Oxygen flux, State 4 (LEAK ATP) ([5]; IPC hearts, peptide 0.5 µM): 21.2 ± 5.3 nmol O2 (µmol IU CS Activity)^−1
- Oxygen flux, +Oligomycin ([5]; IPC hearts, peptide 5 µM): 39.0 ± 3.7 nmol O2 (µmol IU CS Activity)^−1
- Oxygen flux, +ADP 50 µM ([5]; IPC hearts, peptide 5 µM): 71.4 ± 7.5 nmol O2 (µmol IU CS Activity)^−1
- Oxygen flux, Glutamate + Maleate ([5]; IPC hearts, peptide 5 µM): 15.9 ± 1.7 nmol O2 (µmol IU CS Activity)^−1
- Oxygen flux, OXPHOS Saturating +ADP 2.5 mM ([5]; IPC hearts, peptide 5 µM): 98.3 ± 10.5 nmol O2 (µmol IU CS Activity)^−1
- Oxygen flux, State 4 (LEAK ATP) ([5]; IPC hearts, peptide 5 µM): 21.0 ± 2.6 nmol O2 (µmol IU CS Activity)^−1
- Oxygen flux, +Oligomycin ([5]; IPC hearts, peptide 50 µM): 44.2 ± 7.5 nmol O2 (µmol IU CS Activity)^−1
- Oxygen flux, +ADP 50 µM ([5]; IPC hearts, peptide 50 µM): 76.8 ± 21.6 nmol O2 (µmol IU CS Activity)^−1
- Oxygen flux, Glutamate + Maleate ([5]; IPC hearts, peptide 50 µM): 19.6 ± 6.1 nmol O2 (µmol IU CS Activity)^−1
- Oxygen flux, OXPHOS Saturating +ADP 2.5 mM ([5]; IPC hearts, peptide 50 µM): 116.2 ± 37.7 nmol O2 (µmol IU CS Activity)^−1
- Oxygen flux, State 4 (LEAK ATP) ([5]; IPC hearts, peptide 50 µM): 24.0 ± 6.1 nmol O2 (µmol IU CS Activity)^−1
- Oxygen flux, +Oligomycin [5, 6]: 42.8 ± 4.5 nmol O2 (µmol IU CS Activity)^−1
- Oxygen flux, +ADP 50 µM [5, 6]: 68.9 ± 6.5 nmol O2 (µmol IU CS Activity)^−1
- Oxygen flux, Glutamate + Maleate [5, 6]: 16.6 ± 5.0 nmol O2 (µmol IU CS Activity)^−1
- Oxygen flux, OXPHOS Saturating +ADP 2.5 mM [5, 6]: 89.2 ± 35.6 nmol O2 (µmol IU CS Activity)^−1
- Oxygen flux, State 4 (LEAK ATP) [5, 6]: 23.8 ± 5.2 nmol O2 (µmol IU CS Activity)^−1
- Oxygen flux, +Oligomycin [5, 7]: 43.5 ± 2.6 nmol O2 (µmol IU CS Activity)^−1
- Oxygen flux, +ADP 50 µM [5, 7]: 75.1 ± 11.3 nmol O2 (µmol IU CS Activity)^−1
- Oxygen flux, Glutamate + Maleate [5, 7]: 16.6 ± 2.6 nmol O2 (µmol IU CS Activity)^−1
- Oxygen flux, OXPHOS Saturating +ADP 2.5 mM [5, 7]: 113.7 ± 12.9 nmol O2 (µmol IU CS Activity)^−1
- Oxygen flux, State 4 (LEAK ATP) [5, 7]: 22.1 ± 1.6 nmol O2 (µmol IU CS Activity)^−1
- Oxygen flux, +Oligomycin [5, 8]: 44.6 ± 5.1 nmol O2 (µmol IU CS Activity)^−1
- Oxygen flux, +ADP 50 µM [5, 8]: 78.9 ± 14.0 nmol O2 (µmol IU CS Activity)^−1
- Oxygen flux, Glutamate + Maleate [5, 8]: 18.2 ± 0.9 nmol O2 (µmol IU CS Activity)^−1
- Oxygen flux, OXPHOS Saturating +ADP 2.5 mM [5, 8]: 115.3 ± 8.7 nmol O2 (µmol IU CS Activity)^−1
- Oxygen flux, State 4 (LEAK ATP) [5, 8]: 24.8 ± 3.0 nmol O2 (µmol IU CS Activity)^−1

Compound: O=c1[nH]c(=O)c2[nH]c(=O)[nH]c2[nH]1 [uric acid]
- Inhibition of the triggering step of IPC (in words) [1]: inhibit the triggering step of IPC
- Effect on cardioprotection by preconditioning (in words) [1]: blocks cardioprotection by preconditioning

Reference: article PMC9456187, “The Ambivalence of Connexin43 Gap Peptides in Cardioprotection of the Isolated Heart against Ischemic Injury” (International Journal of Molecular Sciences, 2022)
